Molecular target: T1, peroxidasin (Mus musculus, UniProt Q3UQ28)
T1 construct: Cultured murine PFHR9 cells synthesize collagen IV networks that contain sulfilimine crosslinks due to the activity of PXDN; endogenous in cells; host or cells: PFHR-9 cells (isolated matrix from KI-treated culture)
T1 sequence (Q3UQ28 24-1475): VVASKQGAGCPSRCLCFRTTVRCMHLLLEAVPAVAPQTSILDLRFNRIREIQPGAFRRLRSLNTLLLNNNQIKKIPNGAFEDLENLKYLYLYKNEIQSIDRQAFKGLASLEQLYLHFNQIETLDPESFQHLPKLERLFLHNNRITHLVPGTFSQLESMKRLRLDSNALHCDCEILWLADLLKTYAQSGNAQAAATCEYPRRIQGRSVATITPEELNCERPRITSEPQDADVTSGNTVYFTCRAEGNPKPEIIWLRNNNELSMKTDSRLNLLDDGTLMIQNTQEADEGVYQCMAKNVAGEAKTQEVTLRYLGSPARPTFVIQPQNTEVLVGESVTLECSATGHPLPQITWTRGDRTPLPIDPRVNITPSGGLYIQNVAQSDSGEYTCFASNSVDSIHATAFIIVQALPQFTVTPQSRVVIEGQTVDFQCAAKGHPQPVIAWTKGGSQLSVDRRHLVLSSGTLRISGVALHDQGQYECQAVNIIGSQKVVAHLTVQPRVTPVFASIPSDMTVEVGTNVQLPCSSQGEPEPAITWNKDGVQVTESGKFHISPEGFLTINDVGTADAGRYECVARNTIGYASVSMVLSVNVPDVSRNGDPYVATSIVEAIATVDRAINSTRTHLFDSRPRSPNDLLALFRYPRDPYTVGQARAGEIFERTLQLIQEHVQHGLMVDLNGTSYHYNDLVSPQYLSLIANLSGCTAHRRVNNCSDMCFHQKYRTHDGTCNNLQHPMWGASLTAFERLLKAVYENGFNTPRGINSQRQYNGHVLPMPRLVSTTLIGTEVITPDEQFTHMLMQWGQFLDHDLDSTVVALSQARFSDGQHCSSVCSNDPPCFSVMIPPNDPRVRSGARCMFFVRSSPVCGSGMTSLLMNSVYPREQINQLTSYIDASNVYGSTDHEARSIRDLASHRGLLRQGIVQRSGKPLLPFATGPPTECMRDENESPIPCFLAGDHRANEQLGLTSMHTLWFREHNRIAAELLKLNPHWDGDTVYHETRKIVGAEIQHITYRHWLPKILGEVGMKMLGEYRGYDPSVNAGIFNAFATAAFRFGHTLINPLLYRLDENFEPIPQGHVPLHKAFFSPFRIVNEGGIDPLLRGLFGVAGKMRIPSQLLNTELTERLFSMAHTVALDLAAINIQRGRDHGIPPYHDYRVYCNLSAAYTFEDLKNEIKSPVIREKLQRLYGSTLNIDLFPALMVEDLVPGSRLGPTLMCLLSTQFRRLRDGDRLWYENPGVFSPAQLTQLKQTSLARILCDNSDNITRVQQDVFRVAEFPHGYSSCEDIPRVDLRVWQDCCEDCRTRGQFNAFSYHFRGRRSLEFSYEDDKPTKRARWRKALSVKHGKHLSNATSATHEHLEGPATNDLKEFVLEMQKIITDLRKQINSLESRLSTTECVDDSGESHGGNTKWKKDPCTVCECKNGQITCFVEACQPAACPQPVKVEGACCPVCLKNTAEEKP
Assay: In vitro basement membrane (uncrosslinked PFHR-9 matrix) reaction with halides and H2O2
Format: biochemical
Procedure: (FIG. 8A) Matrix pellets isolated from KI-treated PFHR9 cell culture were extensively washed into 10 mM phosphate buffer (pH 7.4) supplemented with 100 mM KF to maintain ionic strength. Potassium salts of Cl— or Br— were added in indicated amounts. 1 hr reactions at 37° C. were initiated by addition of H2O2 to 1 mM and stopped by freezing at −20° C. Coomassie blue-stained gels after collagenase digestion of the samples and SDS-PAGE (FIG. 8B) Schematic of Br-Free chloride salt purification apparatus and setup. […] Reagent KCl was commercially obtained and unaltered prior to analysis. 100 mM solutions were made with 18MΩ deionized water. (FIG. 8C) Coomassie blue stained gel of collagenase digested PFHR-9 matrix reaction assay. Reaction buffered contained 10 mM phosphate buffer (pH 7.4), 100 mM Br-Free or Commercially obtained reagent grade KCl, as well as 1 mM H2O2 and 200 μM PHG where appropriate. (FIG. 8D) SDS-PAGE and coomassie blue stain of hPXDN (27.25 nM) and NC1 domain (1.3 μM) reaction and subsequent densiometric quantitation of S═N bond formation stiochiometry in response to NaBr addition. hPXDN and PFHR-9 NC1 domain were prepared and purified as described (5), except with all buffers for all purification steps (dialysis, chromatography, gradient ultracentrifugation) made with Br-Free chloride salts. Reactions were run for 10 minutes at 37° C. with 10 μM H2O2 as the terminal oxidant. Dose-response curve run in the presence of 1× Br-Free PBS. Reactions were quenched with 0.2 mg/ml Catalase, 20 mM Methionine, and 1 mM PHG. EC50 value±95% C.I. from two independent experiments with each data point plotted and fit.
Uncrosslinked PFHR9 matrix was extensively washed into 10 mM phosphate buffer (pH 7.4) that was supplemented with 100 mM KF to maintain ionic strength. One hour reactions at 37° C. were initiated by addition of H2O2 to 1 mM and stopped by freezing at −20° C. […] Samples were digested with collagenase at 37° C. overnight and visualized by SDS-PAGE using 12% gels under non-reducing conditions with Coomassie staining.
PFHR-9 cells treated with potassium iodide (1-10 mM) to eliminate NC1 hexamer crosslinks were used for basement membrane isolation. To test halide dependency, the inventors established halide-free conditions by washing extensively (at least five times) with 10 mM sodium phosphate pH 7.4. To try to extract or inactivate endogenous basement membrane peroxidase activity, the inventors extracted the matrix preparation twice with 2M guanidine-Cl, 50 mM Tris-Cl pH 7.5 and 10 mM EDTA-Na pH 8 followed by extensive washing with 1×PBS. Basement membrane was resuspended in the desired buffer with or without cofactors and inhibitors to examine in vitro NC1 crosslinking under various conditions. Basement membranes were collagenase solubilized to delineate collagen IV NC1 sulfilimine crosslink formation with SDS-PAGE and Coomassie blue staining membrane was isolated, washed extensively and resuspended in 1×PBS. Azide (0-10 mM) and 1 mM H2O2 were added and allowed to react for 1 h at 37° C. The matrix was pelleted, washed extensively with 1×PBS and solubilized with 1×PBS plus 2% (w/v) SDS. Solubilized proteins were reacted with 100 μM Tris[(1-benzyl-1H-1,2,3-triazol-4-yl)methyl]amine (Anaspec), 1 mM Tris(2-carboxyethyl)phosphine hydrochloride (ThermoFisher Pierce), 1 mM cupric sulfate and 100 μM biotin alkyne (PEG4 carboxamide-propargyl biotin; Life Technologies) for 1 h at 37° C. Click chemistry reactions were quenched with 1 mM 3′-azido-3′-deoxythymidine (Sigma). For avidin-HRP detection, samples were electrophoresed under reducing conditions, transferred to nitrocellulose membranes and probed with streptavidin-HRP according to manufacturer instructions (ThermoFisher Pierce). To isolate biotinylated proteins, the inventors precipitated click reaction products with two volumes of cold acetone to remove reactants, washed them with 70% (v/v) acetone and then resolubilized them in 1×PBS plus 2% SDS.

For Br [bromide], the “crosslink formation on bromide addition to Br-free chloride” value was “restored”, the “halide concentration at which crosslinked dimeric subunits formed” value was ~100 mM and the “halide concentration permitting enzymatic crosslinking within purified matrix” value was 10 µM. The “S═N bond formation in isolated matrix” value (pH 7.4) was “robustly catalyzed bond formation at 10 μM”.
